Reference: patent publication US8912329B2 (priority 2009, dated 2014)

Target: EthR-VP16 (Mycobacterium bovis, UniProt Q7TVI1)
Experiment: cell-based
Design: species or system M. bovis
Conditions: 48 h, read-out: % EthR activity (w/o = 100%); ± std. dev. of the mean (n = 3)

Chain of EthR-VP16 (Q7TVI1 whole entry, looked up): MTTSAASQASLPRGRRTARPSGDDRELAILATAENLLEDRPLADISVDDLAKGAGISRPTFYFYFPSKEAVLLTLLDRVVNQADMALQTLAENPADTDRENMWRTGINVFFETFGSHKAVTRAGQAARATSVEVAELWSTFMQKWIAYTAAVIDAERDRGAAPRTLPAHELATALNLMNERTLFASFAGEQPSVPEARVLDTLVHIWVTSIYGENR

## CCCC(=O)N1CCN(Cc2ccccc2)CC1 [Example 1, 1-(4-Benzylpiperazin-1-yl)butan-1-one]
  remaining activity at 0.5 µM: 72.5 ± 1.65%
  remaining activity at 1.5 µM: 76.5 ± 17.5%
  remaining activity at 3 µM: 68.7 ± 2.79%
  remaining activity at 6 µM: 73.2 ± 1.19%
  remaining activity at 15 µM: 72.6 ± 6.82%
  remaining activity at 30 µM: 64.1 ± 14%
  remaining activity at 60 µM: 53.1 ± 7.78%
  remaining activity at 300 µM: 27.3 ± 5.27%

## CCCC(=O)N1CCOC(c2ccccc2)C1 (stereo not drawn) [Example 3, 1-(2-Phenylmorpholino)butan-1-one]
  remaining activity at 0.5 µM: 85.5 ± 2.57%
  remaining activity at 1.5 µM: 96.82 ± 0.67%
  remaining activity at 3 µM: 84.4 ± 6.37%
  remaining activity at 6 µM: 90.1 ± 6.44%
  remaining activity at 15 µM: 98.4 ± 4.51%
  remaining activity at 30 µM: 86.5 ± 4.1%
  remaining activity at 60 µM: 81.9 ± 8.6%
  remaining activity at 300 µM: 40.2 ± 4.65%

## CCCC(=O)N1CCC(c2ccccc2)C1 (stereo not drawn) [Example 13, 1-(3-Phenylpyrrolidin-1-yl)butan-1-one]
  remaining activity at 0.5 µM: 30.4 ± 3.98%
  remaining activity at 1.5 µM: 17.7 ± 2.01%
  remaining activity at 3 µM: 11 ± 2.88%
  remaining activity at 6 µM: 10.9 ± 1.45%
  remaining activity at 15 µM: 12.4 ± 0.99%
  remaining activity at 30 µM: 14.5 ± 7.8%
  remaining activity at 60 µM: 10.8 ± 1.34%
  remaining activity at 300 µM: 12 ± 1.27%

## O=C(Cc1cccs1)N1CCOC(c2ccccc2)C1 (stereo not drawn) [Example 14, 1-(2-Phenylmorpholin-4-yl)-2-(thiophen-2-yl)ethan-1-one]
  remaining activity at 0.5 µM: 106 ± 19.8%
  remaining activity at 1.5 µM: 86.2 ± 1.36%
  remaining activity at 3 µM: 85.9 ± 6.26%
  remaining activity at 6 µM: 74.8 ± 1.22%
  remaining activity at 15 µM: 60.5 ± 1.32%
  remaining activity at 30 µM: 35.4 ± 5.3%
  remaining activity at 60 µM: 25.5 ± 3.82%
  remaining activity at 300 µM: 9.16 ± 1.37%

## O=C(CCc1ccco1)N1CCN(Cc2ccccc2)CC1 [Example 18, 1-(4-Benzylpiperazin-1-yl)-3-(furan-2-yl)propan-1-one]
  remaining activity at 0.5 µM: 91.9 ± 3.57%
  remaining activity at 1.5 µM: 80.7 ± 8.89%
  remaining activity at 3 µM: 81.4 ± 15.9%
  remaining activity at 6 µM: 59.3 ± 1.2%
  remaining activity at 15 µM: 44.2 ± 2.35%
  remaining activity at 30 µM: 11.2 ± 1.68%
  remaining activity at 60 µM: 12.4 ± 1.85%
  remaining activity at 300 µM: 1.74 ± 0.26%

## CC(C)CC(=O)N1CCOC(c2ccccc2)C1 (stereo not drawn) [Example 19, 3-Methyl-1-(2-phenylmorpholin-4-yl)butan-1-one]
  remaining activity at 0.5 µM: 95.6 ± 9.07%
  remaining activity at 1.5 µM: 102 ± 4.13%
  remaining activity at 3 µM: 95.9 ± 9.02%
  remaining activity at 6 µM: 96.4 ± 13.5%
  remaining activity at 15 µM: 76 ± 6.56%
  remaining activity at 30 µM: 35.2 ± 5.28%
  remaining activity at 60 µM: 33.5 ± 5.96%
  remaining activity at 300 µM: 27.6 ± 0.37%

## CC(C)(C)CC(=O)N1CCOC(c2ccccc2)C1 (stereo not drawn) [Example 20, 3,3-Dimethyl-1-(2-phenylmorpholin-4-yl)butan-1-one]
  remaining activity at 0.5 µM: 96.6 ± 11.1%
  remaining activity at 1.5 µM: 90.9 ± 14%
  remaining activity at 3 µM: 88.2 ± 8.63%
  remaining activity at 6 µM: 89 ± 4.56%
  remaining activity at 15 µM: 75.5 ± 6.63%
  remaining activity at 30 µM: 43.7 ± 3.21%
  remaining activity at 60 µM: 33 ± 6.41%
  remaining activity at 300 µM: 35.5 ± 1.37%

## O=C(CCc1ccccc1)N1CCOC(c2ccccc2)C1 (stereo not drawn) [Example 21, 3-Phenyl-1-(2-phenylmorpholin-4-yl)propan-1-one]
  remaining activity at 0.5 µM: 108 ± 7.36%
  remaining activity at 1.5 µM: 98.5 ± 16.4%
  remaining activity at 3 µM: 73.5 ± 7.58%
  remaining activity at 6 µM: 60.2 ± 8.98%
  remaining activity at 15 µM: 40.8 ± 4.81%
  remaining activity at 30 µM: 8.33 ± 5.61%
  remaining activity at 60 µM: 6.29 ± 1.05%
  remaining activity at 300 µM: 1.34 ± 1.58%

## O=C(CCc1ccccc1)N1CCC1c1ccccc1 (stereo not drawn) [Example 22, 3-Phenyl-1-(2-phenylazetidin-1-yl)propan-1-one]
  remaining activity at 0.5 µM: 90 ± 15.2%
  remaining activity at 1.5 µM: 106 ± 10%
  remaining activity at 3 µM: 97.4 ± 5.01%
  remaining activity at 6 µM: 90.2 ± 8.48%
  remaining activity at 15 µM: 77.8 ± 4.33%
  remaining activity at 30 µM: 59.4 ± 4.5%
  remaining activity at 60 µM: 33.2 ± 2.46%
  remaining activity at 300 µM: 6.34 ± 0.89%

## O=C(CCCc1ccccc1)N1CCC1c1ccccc1 (stereo not drawn) [Example 23, 4-Phenyl-1-(2-phenylazetidin-1-yl)butan-1-one]
  remaining activity at 0.5 µM: 96.3 ± 10%
  remaining activity at 1.5 µM: 102 ± 12.3%
  remaining activity at 3 µM: 101 ± 9.55%
  remaining activity at 6 µM: 90.1 ± 9.21%
  remaining activity at 15 µM: 86.8 ± 5.76%
  remaining activity at 30 µM: 81.5 ± 5.22%
  remaining activity at 60 µM: 49.4 ± 1.49%
  remaining activity at 300 µM: 6.18 ± 2.53%

## O=C(CCc1ccccc1)N1CC(Cc2ccccc2)C1 [Example 25, 1-(3-Benzylazetidin-1-yl)-3-phenylpropan-1-one]
  remaining activity at 0.5 µM: 86.8 ± 9.98%
  remaining activity at 1.5 µM: 88.5 ± 8.12%
  remaining activity at 3 µM: 69.5 ± 4.27%
  remaining activity at 6 µM: 48 ± 5.86%
  remaining activity at 15 µM: 28.7 ± 3.22%
  remaining activity at 30 µM: 19.5 ± 0.89%
  remaining activity at 60 µM: 14.2 ± 3.23%
  remaining activity at 300 µM: 6.03 ± 2%

## O=C(CCCc1ccccc1)N1CC(Cc2ccccc2)C1 [Example 27, 1-(3-Benzylazetidin-1-yl)-4-phenylbutan-1-on]
  remaining activity at 0.5 µM: 59.6 ± 2.49%
  remaining activity at 1.5 µM: 42.6 ± 1.49%
  remaining activity at 3 µM: 37.9 ± 5.47%
  remaining activity at 6 µM: 31.3 ± 3.58%
  remaining activity at 15 µM: 31.7 ± 1.36%
  remaining activity at 30 µM: 26.3 ± 9.65%
  remaining activity at 60 µM: 17.5 ± 4.51%
  remaining activity at 300 µM: 15.3 ± 2.79%

## CCCCC(=O)N1CCN(Cc2ccccc2)CC1 [Example 28, 1-(4-Benzylpiperazin-1-yl)pentan-1-one]
  remaining activity at 0.5 µM: 97.1 ± 9.36%
  remaining activity at 1.5 µM: 81.5 ± 3.01%
  remaining activity at 3 µM: 59.4 ± 4.9%
  remaining activity at 6 µM: 46.2 ± 2.55%
  remaining activity at 15 µM: 38.3 ± 2.21%
  remaining activity at 30 µM: 18.5 ± 3.64%
  remaining activity at 60 µM: 11.7 ± 2.77%
  remaining activity at 300 µM: 10.2 ± 1.94%

## CCCCCC(=O)N1CCN(Cc2ccccc2)CC1 [Example 29, 1-(4-Benzylpiperazin-1-yl)hexan-1-one]
  remaining activity at 0.5 µM: 85.4 ± 9.96%
  remaining activity at 1.5 µM: 56 ± 5.54%
  remaining activity at 3 µM: 36.5 ± 3.17%
  remaining activity at 6 µM: 26.5 ± 0.73%
  remaining activity at 15 µM: 16.9 ± 0.73%
  remaining activity at 30 µM: 16.7 ± 3.59%
  remaining activity at 60 µM: 10 ± 2.93%
  remaining activity at 300 µM: 12.9 ± 4.6%

## CCCCC(=O)N1CCOC(c2ccccc2)C1 (stereo not drawn) [Example 30, 1-(2-Phenylmorpholin-4-yl)pentan-1-one]
  remaining activity at 0.5 µM: 112 ± 16.1%
  remaining activity at 1.5 µM: 111 ± 17.1%
  remaining activity at 3 µM: 101 ± 5.87%
  remaining activity at 6 µM: 90.5 ± 5.55%
  remaining activity at 15 µM: 69.2 ± 8.71%
  remaining activity at 30 µM: 43.3 ± 2.01%
  remaining activity at 60 µM: 26.9 ± 2.34%
  remaining activity at 300 µM: 14.9 ± 3%

## CCCCCC(=O)N1CCOC(c2ccccc2)C1 (stereo not drawn) [Example 31, 1-(2-Phenylmorpholin-4-yl)hexan-1-one]
  remaining activity at 0.5 µM: 106 ± 17.5%
  remaining activity at 1.5 µM: 103 ± 16.4%
  remaining activity at 3 µM: 94.1 ± 15.9%
  remaining activity at 6 µM: 63.7 ± 5.26%
  remaining activity at 15 µM: 33.2 ± 1.27%
  remaining activity at 30 µM: 25 ± 4.22%
  remaining activity at 60 µM: 17.8 ± 4.01%
  remaining activity at 300 µM: 15 ± 2.11%

## CCCCC(=O)N1CCC(c2ccccc2)C1 (stereo not drawn) [Example 32, 1-(3-Phenylpyrrolidin-1-yl)pentan-1-one]
  remaining activity at 0.5 µM: 12.5 ± 5.97%
  remaining activity at 1.5 µM: 10.7 ± 2.55%
  remaining activity at 3 µM: 10.4 ± 2.69%
  remaining activity at 6 µM: 9.96 ± 3.44%
  remaining activity at 15 µM: 5.65 ± 1.1%
  remaining activity at 30 µM: 8.77 ± 1.57%
  remaining activity at 60 µM: 8.89 ± 1.74%
  remaining activity at 300 µM: 1.56 ± 0.8%

## CCCCCC(=O)N1CCC(c2ccccc2)C1 (stereo not drawn) [Example 33, 1-(3-Phenylpyrrolidin-1-yl)hexan-1-one]
  remaining activity at 0.5 µM: 11.4 ± 3.47%
  remaining activity at 1.5 µM: 14.9 ± 5.68%
  remaining activity at 3 µM: 5.8 ± 2.33%
  remaining activity at 6 µM: 3.83 ± 1.01%
  remaining activity at 15 µM: 4.58 ± 1.34%
  remaining activity at 30 µM: 5.01 ± 0.8%
  remaining activity at 60 µM: 5.24 ± 2.58%
  remaining activity at 300 µM: 2.78 ± 1.33%
